Read-outs that look alike come from different tables or passages of the source.
Experiments:
Test in all cases: Test E pre-/postemergence plant response
Type in all cases: in vivo
[1] = test system: spring wheat (Triticum aestivum); settings: scale 0 to 100, read-out: Plant response rating, Wheat, Spring; for plant injury at 16 g/ha: 16 g ai/ha; for plant injury at 62 g/ha: 62 g ai/ha; for plant injury at 125 g/ha: 125 g ai/ha
Procedure, shortened: (§1)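 Pre-emergence: seeds sown in silt loam soil and sprayed with test chemicals in a non-phytotoxic solvent/surfactant mix. Post-emergence: plants at 2–18 cm (1- to 4-leaf stage) in peat/vermiculite medium treated with the same formulation. Visual rating versus controls after 7–21 days, 0 (no effect) to 100 (complete control).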

[2] = test system: lambsquarters (Chenopodium album); settings: scale 0 to 100, read-out: Plant response rating, Lambsquarters; for pest or weed control at 16 g/ha: 16 g ai/ha; for pest or weed control at 31 g/ha: 31 g ai/ha; for pest or weed control at 62 g/ha: 62 g ai/ha; for pest or weed control at 125 g/ha: 125 g ai/ha
Procedure, shortened: as §1

[3] = test system: wild radish (Raphanus raphanistrum); settings: scale 0 to 100, read-out: Plant response rating, Radish, Wild; for pest or weed control at 16 g/ha: 16 g ai/ha; for pest or weed control at 31 g/ha: 31 g ai/ha; for pest or weed control at 62 g/ha: 62 g ai/ha; for pest or weed control at 125 g/ha: 125 g ai/ha
Procedure, shortened: as §1

[4] = test system: chickweed (common chickweed, Stellaria media); settings: scale 0 to 100, read-out: Plant response rating, Chickweed; for pest or weed control at 16 g/ha: 16 g ai/ha; for pest or weed control at 31 g/ha: 31 g ai/ha; for pest or weed control at 62 g/ha: 62 g ai/ha; for pest or weed control at 125 g/ha: 125 g ai/ha
Procedure, shortened: as §1

[5] = test system: galium (catchweed bedstraw, Galium aparine); settings: scale 0 to 100, read-out: Plant response rating, Galium; for pest or weed control at 16 g/ha: 16 g ai/ha; for pest or weed control at 31 g/ha: 31 g ai/ha; for pest or weed control at 62 g/ha: 62 g ai/ha; for pest or weed control at 125 g/ha: 125 g ai/ha
Procedure, shortened: as §1

[6] = test system: Italian ryegrass (Lolium multiflorum); settings: scale 0 to 100, read-out: Plant response rating, Ryegrass, Italian; for pest or weed control at 16 g/ha: 16 g ai/ha; for pest or weed control at 31 g/ha: 31 g ai/ha; for pest or weed control at 62 g/ha: 62 g ai/ha; for pest or weed control at 125 g/ha: 125 g ai/ha
Procedure, shortened: as §1

[7] = test system: speedwell (bird's-eye speedwell, Veronica persica); settings: scale 0 to 100, read-out: Plant response rating, Speedwell; for pest or weed control at 16 g/ha: 16 g ai/ha; for pest or weed control at 62 g/ha: 62 g ai/ha; for pest or weed control at 125 g/ha: 125 g ai/ha
Procedure, shortened: as §1

[8] = test system: winter wheat (Triticum aestivum); settings: scale 0 to 100, read-out: Plant response rating, Wheat, Winter; for plant injury at 16 g/ha: 16 g ai/ha; for plant injury at 62 g/ha: 62 g ai/ha; for plant injury at 125 g/ha: 125 g ai/ha
Procedure, shortened: as §1

[9] = test system: bluegrass (annual bluegrass, Poa annua); settings: scale 0 to 100, read-out: Plant response rating, Bluegrass; for pest or weed control at 16 g/ha: 16 g ai/ha; for pest or weed control at 31 g/ha: 31 g ai/ha; for pest or weed control at 62 g/ha: 62 g ai/ha; for pest or weed control at 125 g/ha: 125 g ai/ha
Procedure, shortened: as §1

[10] = test system: field violet (Viola arvensis); settings: scale 0 to 100, read-out: Plant response rating, Field Violet; for pest or weed control at 16 g/ha: 16 g ai/ha; for pest or weed control at 31 g/ha: 31 g ai/ha; for pest or weed control at 62 g/ha: 62 g ai/ha; for pest or weed control at 125 g/ha: 125 g ai/ha
Procedure, shortened: as §1

[11] = test system: spring barley (Hordeum vulgare); settings: for plant injury at 16 g/ha: 16 g ai/ha; for plant injury at 31 g/ha: 31 g ai/ha; for plant injury at 62 g/ha: 62 g ai/ha; for plant injury at 125 g/ha: 125 g ai/ha
Procedure, shortened: as §1

[12] = post-emergence, 31 g ai/ha, Postemergence
[13] = post-emergence, Postemergence, scale 0 to 100, read-out: Plant response rating, Barley, Spring
[14] = pre-emergence, Preemergence, scale 0 to 100, read-out: Plant response rating, Barley, Spring

## Fc1cccc(Oc2ncc(Cl)cn2)c1-c1cc(C(F)F)no1 [Compound 144, 5-chloro-2-[2-[3-(difluoromethyl)-5-isoxazolyl]-3-fluorophenoxy]pyrimidine]
[1]; post-emergence, Postemergence
  plant injury at 16 g/ha: 25%
  plant injury at 62 g/ha: 45%
  plant injury at 125 g/ha: 75%
[1]; [12]
  plant injury at 31 g/ha: 35%
[1]; pre-emergence, Preemergence
  plant injury at 16 g/ha: 5%
  plant injury at 62 g/ha: 40%
  plant injury at 125 g/ha: 55%
[2]; post-emergence, Postemergence
  pest or weed control at 16 g/ha: 80%
  pest or weed control at 31 g/ha: 95%
  pest or weed control at 62 g/ha: 98%
  pest or weed control at 125 g/ha: 100%
[2]; pre-emergence, Preemergence
  pest or weed control at 16 g/ha: 100%
  pest or weed control at 31 g/ha: 100%
  pest or weed control at 62 g/ha: 100%
  pest or weed control at 125 g/ha: 100%
[3]; post-emergence, Postemergence
  pest or weed control at 16 g/ha: 100%
  pest or weed control at 31 g/ha: 100%
  pest or weed control at 62 g/ha: 100%
  pest or weed control at 125 g/ha: 100%
[3]; pre-emergence, Preemergence
  pest or weed control at 16 g/ha: 80%
  pest or weed control at 31 g/ha: 80%
  pest or weed control at 62 g/ha: 100%
  pest or weed control at 125 g/ha: 100%
[4]; post-emergence, Postemergence
  pest or weed control at 16 g/ha: 85%
  pest or weed control at 31 g/ha: 100%
  pest or weed control at 62 g/ha: 100%
  pest or weed control at 125 g/ha: 100%
[4]; pre-emergence, Preemergence
  pest or weed control at 16 g/ha: 100%
  pest or weed control at 31 g/ha: 100%
  pest or weed control at 62 g/ha: 100%
  pest or weed control at 125 g/ha: 100%
[5]; post-emergence, Postemergence
  pest or weed control at 16 g/ha: 80%
  pest or weed control at 31 g/ha: 95%
  pest or weed control at 62 g/ha: 100%
  pest or weed control at 125 g/ha: 100%
[5]; pre-emergence, Preemergence
  pest or weed control at 16 g/ha: 20%
  pest or weed control at 31 g/ha: 70%
  pest or weed control at 62 g/ha: 100%
  pest or weed control at 125 g/ha: 100%
[6]; post-emergence, Postemergence
  pest or weed control at 16 g/ha: 5%
  pest or weed control at 31 g/ha: 15%
  pest or weed control at 62 g/ha: 40%
  pest or weed control at 125 g/ha: 65%
[6]; pre-emergence, Preemergence
  pest or weed control at 16 g/ha: 10%
  pest or weed control at 31 g/ha: 25%
  pest or weed control at 62 g/ha: 70%
  pest or weed control at 125 g/ha: 100%
[7]; post-emergence, Postemergence
  pest or weed control at 16 g/ha: 100%
  pest or weed control at 62 g/ha: 100%
  pest or weed control at 125 g/ha: 100%
[7]; [12]
  pest or weed control at 31 g/ha: 100%
[7]; pre-emergence, Preemergence
  pest or weed control at 16 g/ha: 100%
  pest or weed control at 62 g/ha: 100%
  pest or weed control at 125 g/ha: 100%
[8]; post-emergence, Postemergence
  plant injury at 16 g/ha: 20%
  plant injury at 62 g/ha: 35%
  plant injury at 125 g/ha: 70%
[8]; [12]
  plant injury at 31 g/ha: 30%
[8]; pre-emergence, Preemergence
  plant injury at 16 g/ha: 0%
  plant injury at 62 g/ha: 25%
  plant injury at 125 g/ha: 35%
[9]; post-emergence, Postemergence
  pest or weed control at 16 g/ha: 25%
  pest or weed control at 31 g/ha: 45%
  pest or weed control at 62 g/ha: 55%
  pest or weed control at 125 g/ha: 65%
[9]; pre-emergence, Preemergence
  pest or weed control at 16 g/ha: 10%
  pest or weed control at 31 g/ha: 15%
  pest or weed control at 62 g/ha: 40%
  pest or weed control at 125 g/ha: 85%
[10]; post-emergence, Postemergence
  pest or weed control at 16 g/ha: 95%
  pest or weed control at 31 g/ha: 90%
  pest or weed control at 62 g/ha: 100%
  pest or weed control at 125 g/ha: 100%
[10]; pre-emergence, Preemergence
  pest or weed control at 16 g/ha: 95%
  pest or weed control at 31 g/ha: 100%
  pest or weed control at 62 g/ha: 100%
  pest or weed control at 125 g/ha: 100%
[11]; [13]
  plant injury at 16 g/ha: 15%
  plant injury at 31 g/ha: 25%
  plant injury at 62 g/ha: 35%
[11]; post-emergence, Postemergence, scale 0 to 100 (0 no effect, 100 complete control), read-out: Plant response rating, Barley, Spring
  plant injury at 125 g/ha: 45%
[11]; [14]
  plant injury at 16 g/ha: 10%
  plant injury at 31 g/ha: 25%
  plant injury at 62 g/ha: 45%
  plant injury at 125 g/ha: 65%
